Where “and” joins values, the source holds several entries; their conditions need not be identical. Identical values can stand only once.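 These data come from cells grown in 96-well plates and exposed to compound for 48 hours at five concentrations. GI50 is the concentration that inhibits growth by half. TGI: concentration producing complete growth inhibition.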
Experiments:
Experiment in all cases: inhibition of tumour cell growth, NCI panel, 48 h
NCI-H226 lung = test system: NCI-H226 lung
UACC-62 melanoma = test system: UACC-62 melanoma
SF-295 CNS = test system: SF-295 CNS
KM12 colon = test system: KM12 colon
HOP-62 NSCLC = test system: HOP-62 NSCLC
MOLT-4 leukemia = test system: MOLT-4 leukemia
U251 CNS = test system: U251 CNS
OVCAR-3 ovarian = test system: OVCAR-3 ovarian
IGROV1 ovarian = test system: IGROV1 ovarian
OVCAR-5 ovarian = test system: OVCAR-5 ovarian

## CCc1cccc(C)c1NS(=O)(=O)c1ccccc1
NCI-H226 lung
  TGI: > 100 µM
UACC-62 melanoma
  TGI: > 100 µM
SF-295 CNS
  TGI: > 100 µM
KM12 colon
  TGI: > 100 µM
HOP-62 NSCLC
  TGI: > 100 µM
MOLT-4 leukemia
  TGI: > 100 µM
U251 CNS
  TGI: > 100 µM
OVCAR-3 ovarian
  TGI: > 100 µM
IGROV1 ovarian
  TGI: > 100 µM
OVCAR-5 ovarian
  TGI: > 100 µM

## CO/N=C(\COc1ccc2c(c1)[nH]c1ccccc12)c1ccc(OC)cc1
NCI-H226 lung
  GI50: > 100 µM
  TGI: > 100 µM
UACC-62 melanoma
  GI50: 26.6 µM
  TGI: > 100 µM
SF-295 CNS
  GI50: 13.6 µM
  TGI: 99.2 µM
KM12 colon
  GI50: > 100 µM
  TGI: > 100 µM
HOP-62 NSCLC
  GI50: 6.26 µM
  TGI: 64 µM
MOLT-4 leukemia
  GI50: 27.9 µM
  TGI: > 100 µM
U251 CNS
  GI50: 15.2 µM
  TGI: > 100 µM
OVCAR-3 ovarian
  GI50: 32.9 µM
  TGI: > 100 µM
IGROV1 ovarian
  GI50: 31.5 µM
  TGI: > 100 µM
OVCAR-5 ovarian
  GI50: 61 µM
  TGI: > 100 µM

## Cc1ccc(S(=O)(=O)SC/C=C\CSS(=O)(=O)c2ccc(C)cc2)cc1
NCI-H226 lung
  TGI: 71.5 µM and 55.2 µM
UACC-62 melanoma
  TGI: > 79.9 µM and 45.5 µM
SF-295 CNS
  TGI: > 95.7 µM and 50.7 µM
KM12 colon
  TGI: > 100 µM and 30.4 µM
HOP-62 NSCLC
  TGI: > 100 µM
MOLT-4 leukemia
  TGI: 14.6 µM and 72.6 µM
U251 CNS
  TGI: 66.3 µM and 34.7 µM
OVCAR-3 ovarian
  TGI: 78.8 µM and 56 µM
IGROV1 ovarian
  TGI: > 100 µM and 79.2 µM
OVCAR-5 ovarian
  GI50: > 78.5 µM and 30 µM
  TGI: > 100 µM

## O=c1cc(-c2cccs2)[nH]c2cc3c(cc12)OCO3
NCI-H226 lung
  TGI: > 39.4 µM
UACC-62 melanoma
  TGI: > 25 µM
SF-295 CNS
  TGI: > 49 µM
KM12 colon
  TGI: > 100 µM
HOP-62 NSCLC
  TGI: 39.4 µM
MOLT-4 leukemia
  TGI: > 100 µM
U251 CNS
  TGI: > 60.2 µM
OVCAR-3 ovarian
  TGI: > 28.5 µM
IGROV1 ovarian
  TGI: > 53.4 µM
OVCAR-5 ovarian
  TGI: > 100 µM

## C=C1CCC2C3(C)COC(C)(C)OC3CCC2(C)C1C/C=C1/C(=O)OCC1OC(C)=O (stereo unspecified)
NCI-H226 lung
  GI50: 12.8 µM
  TGI: 33.7 µM
UACC-62 melanoma
  GI50: 4.04 µM
  TGI: 17 µM
SF-295 CNS
  GI50: 11.5 µM
  TGI: 25.9 µM
KM12 colon
  GI50: 3.88 µM
  TGI: 13.4 µM
HOP-62 NSCLC
  GI50: 11.9 µM
  TGI: 25 µM
MOLT-4 leukemia
  GI50: 3.53 µM
  TGI: 14.3 µM
U251 CNS
  GI50: 2.69 µM
  TGI: 9.31 µM
OVCAR-3 ovarian
  GI50: 2.47 µM
  TGI: 6.07 µM
IGROV1 ovarian
  GI50: 2.03 µM
  TGI: 6.84 µM
OVCAR-5 ovarian
  GI50: 3.78 µM
  TGI: 11.2 µM

## CCOC(=O)Oc1c(OC)cc(C(=O)c2ccc(OC)c(O)c2OC)cc1OC
NCI-H226 lung
  GI50: 4.56 µM
  TGI: 40.7 µM
UACC-62 melanoma
  GI50: 3.82 µM
  TGI: > 100 µM
SF-295 CNS
  GI50: 0.524 µM
  TGI: 49.7 µM
KM12 colon
  GI50: 0.52 µM
  TGI: > 100 µM
HOP-62 NSCLC
  GI50: 0.962 µM
  TGI: > 100 µM
MOLT-4 leukemia
  GI50: 0.492 µM
  TGI: > 100 µM
U251 CNS
  GI50: 0.947 µM
  TGI: > 100 µM
OVCAR-3 ovarian
  GI50: 0.414 µM
  TGI: > 100 µM
IGROV1 ovarian
  GI50: 3.86 µM
  TGI: > 100 µM
OVCAR-5 ovarian
  GI50: 5.96 µM
  TGI: > 100 µM

## COC(=O)/C(=N\NC(C)(C)C)C(C(=O)OC)C(=O)C(=O)Nc1cc(Cl)ccc1Cl (stereo unspecified)
NCI-H226 lung
  TGI: > 100 µM
UACC-62 melanoma
  TGI: > 100 µM
SF-295 CNS
  TGI: > 100 µM
KM12 colon
  TGI: > 100 µM
HOP-62 NSCLC
  TGI: > 100 µM
MOLT-4 leukemia
  TGI: > 100 µM
U251 CNS
  TGI: > 100 µM
OVCAR-3 ovarian
  TGI: > 100 µM
IGROV1 ovarian
  TGI: > 100 µM
OVCAR-5 ovarian
  TGI: > 100 µM

## CC(CO)Nc1cc(-c2[nH]c3cccnc3c2-c2ccc(F)cc2)ccn1 (stereo unspecified)
NCI-H226 lung
  GI50: > 23.8 µM
  TGI: > 25 µM
UACC-62 melanoma
  GI50: 11.4 µM
  TGI: > 25 µM
SF-295 CNS
  GI50: > 25 µM
  TGI: > 25 µM
KM12 colon
  GI50: 19.1 µM
  TGI: > 25 µM
HOP-62 NSCLC
  GI50: > 25 µM
  TGI: > 25 µM
MOLT-4 leukemia
  GI50: > 25 µM
  TGI: > 25 µM
U251 CNS
  GI50: 15.4 µM
  TGI: > 25 µM
OVCAR-3 ovarian
  GI50: 16.8 µM
  TGI: > 25 µM
IGROV1 ovarian
  GI50: 6.77 µM
  TGI: > 25 µM
OVCAR-5 ovarian
  GI50: 22.8 µM
  TGI: > 25 µM

## N#CC(C#N)=C/C=C(\Cl)c1ccc(Cl)cc1
NCI-H226 lung
  GI50: 7.69 µM
  TGI: 33.9 µM
UACC-62 melanoma
  GI50: 6.13 µM
  TGI: 22.8 µM
SF-295 CNS
  GI50: 9.73 µM
  TGI: 36.4 µM
KM12 colon
  GI50: 15 µM
  TGI: 44.1 µM
HOP-62 NSCLC
  GI50: 14.3 µM
  TGI: 31.3 µM
MOLT-4 leukemia
  GI50: 0.696 µM
  TGI: > 100 µM
U251 CNS
  GI50: 6.9 µM
  TGI: > 43.7 µM
OVCAR-3 ovarian
  GI50: 6.5 µM
  TGI: 17.4 µM
IGROV1 ovarian
  GI50: 7.46 µM
  TGI: 32 µM
OVCAR-5 ovarian
  GI50: 8.78 µM
  TGI: 24.5 µM

## O=C(Nc1cccc(Cl)c1)Nn1cnnc1
NCI-H226 lung
  GI50: > 50 µM
  TGI: > 100 µM
UACC-62 melanoma
  GI50: > 50 µM
  TGI: > 100 µM
SF-295 CNS
  GI50: > 50 µM
  TGI: > 100 µM
KM12 colon
  GI50: > 50 µM
  TGI: > 100 µM
HOP-62 NSCLC
  GI50: > 50 µM
  TGI: > 100 µM
MOLT-4 leukemia
  GI50: > 50 µM
  TGI: > 100 µM
U251 CNS
  GI50: > 50 µM
  TGI: > 100 µM
OVCAR-3 ovarian
  GI50: > 50 µM
  TGI: > 100 µM
IGROV1 ovarian
  GI50: > 50 µM
  TGI: > 100 µM
OVCAR-5 ovarian
  GI50: > 50 µM
  TGI: > 50 µM and 22.5 µM

## C=CCc1c(Cl)nc(Cl)nc1Cl
NCI-H226 lung
  TGI: 1.69 µM
UACC-62 melanoma
  TGI: 2.07 µM
SF-295 CNS
  TGI: 3.94 µM
KM12 colon
  TGI: 0.888 µM
HOP-62 NSCLC
  TGI: 1.07 µM
MOLT-4 leukemia
  TGI: 0.0625 µM
U251 CNS
  TGI: 1.74 µM
OVCAR-3 ovarian
  TGI: 0.311 µM
IGROV1 ovarian
  TGI: 1.36 µM
OVCAR-5 ovarian
  TGI: 2.02 µM

## Nc1ncnc2c1ncn2C1OC(CSCC(F)(F)F)C(O)C1O (stereo unspecified)
NCI-H226 lung
  TGI: > 100 µM
UACC-62 melanoma
  TGI: > 100 µM
SF-295 CNS
  TGI: > 100 µM
KM12 colon
  TGI: > 100 µM
HOP-62 NSCLC
  TGI: > 100 µM
MOLT-4 leukemia
  TGI: > 100 µM
U251 CNS
  TGI: > 100 µM
OVCAR-3 ovarian
  TGI: > 100 µM
IGROV1 ovarian
  TGI: > 100 µM
OVCAR-5 ovarian
  TGI: > 100 µM

Reference: PubChem BioAssay (NCI)
